This experiment deals with T1, S1P1 (Homo sapiens, UniProt P21453).
T1 construct: host or cells: U2OS (human osteosarcoma) cell line, U2OS-EDG1
Put plainly: S1P1 overexpression cell activity by β-arrestin assay (U2OS-EDG1). The conditions noted are these: U2OS-EDG1 cells. In kind it is cell-based. As for the experimental part: The following experiments were conducted to detect the activity of the compound on S1P1 overexpression cells by β-arrestin assay. [table] [table] 3. Experimental Steps Day 1: Cell Seeding Plate and Compound Treatment • (1) Firstly, the compound was diluted by a 4-fold gradient into 10 concentration points from the concentration of 10 μM in the culture plate by using NL fluid transfer system, with 2 replicates at each concentration point. • (2) Cells were resuspended by using FreeStyle™ expression medium, and the cell density was adjusted to 7,500 cells per 40 μL suspension. The samples with test concentration were added into the well of the cell culture plate, and 40 μL cell suspension was added into the corresponding well. • (3) The above cell plates were incubated overnight in a CO2 incubator with 5% (volume fraction) at 37° C. Day 2: Detection and Data Analysis • (1) The buffer solution was prepared according to the preparation method in the instructions of LiveBLAser™-fluorescence resonance energy transfer B/G loading kit. • (2) 8 μL detection reagent was added to each well, which were shaken and mixed evenly for 1 minute, centrifugated at 1,000 rpm for 10 seconds, and incubated at 23° C. in dark for 2 hours. • 3) Detection was performed by multimode reader. • 4) The PrismDemo software was used to analyze the data and fit the curve. 4. Experimental Results

From US12486229B2, “Indole derivative and application thereof” (SHANGHAI MEDICILON INC., priority 2020, dated 2025) come the findings set out here.

In general, IC50 refers to the midpoint of a concentration-inhibition curve.

T1 sequence (P21453 whole entry): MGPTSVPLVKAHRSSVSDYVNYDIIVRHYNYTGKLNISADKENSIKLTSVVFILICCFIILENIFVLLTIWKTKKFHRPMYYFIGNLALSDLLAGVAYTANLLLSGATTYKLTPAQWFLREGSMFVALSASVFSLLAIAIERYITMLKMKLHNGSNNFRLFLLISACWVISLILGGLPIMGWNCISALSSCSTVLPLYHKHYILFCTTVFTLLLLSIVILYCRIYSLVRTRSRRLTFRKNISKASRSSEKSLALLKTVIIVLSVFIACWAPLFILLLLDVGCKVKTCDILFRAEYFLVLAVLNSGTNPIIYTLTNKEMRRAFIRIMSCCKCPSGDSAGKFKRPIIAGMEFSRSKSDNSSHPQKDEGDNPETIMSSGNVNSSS

`O=C(O)CCCn1ccc2cc(OCc3ccc(C4CCCC4)c(C(F)(F)F)c3)cc(Cl)c21` [Compound of Example 5, 4-(7-chlorine-5-((4-cyclopentyl-3-(trifluoromethyl)benzyl)oxy)-1H-indole-1-yl)butyric acid]: it took 0.251 nM to reach half-maximal inhibition (IC50).
The compound `O=C(O)Cn1ccc2cc(OCc3ccc(C4CCCC4)c(C(F)(F)F)c3)ccc21` [Compound of Example 6, 2-(5-((4-cyclopentyl-3-(trifluoromethyl)benzyl)oxy)-1H-indole-1-yl)acetic acid] yielded an IC50 of 175 nM.
